Results as given in patent US8993527B2, “Methods, compositions, and formulations for preventing or reducing adverse effects in a patient” (Pericor Therapeutics, Inc., priority 2005, dated 2015).
Where a name gives a salt, the structure may show the parent alone. Blank lines part the entries; values can stand above or below the compound they belong to.

Assays:
[1] = target: T1, NBTI-specific adenosine transport site (UniProt O54698); experiment: [3H]-NBTI binding assay; settings: read-out: ED50 (50% displacement of bound [3H]-NBTI); 0.5 mg neuronal membrane protein, 0.5 nM [3H]-NBTI, 30 minutes
T1 sequence (O54698 1-457): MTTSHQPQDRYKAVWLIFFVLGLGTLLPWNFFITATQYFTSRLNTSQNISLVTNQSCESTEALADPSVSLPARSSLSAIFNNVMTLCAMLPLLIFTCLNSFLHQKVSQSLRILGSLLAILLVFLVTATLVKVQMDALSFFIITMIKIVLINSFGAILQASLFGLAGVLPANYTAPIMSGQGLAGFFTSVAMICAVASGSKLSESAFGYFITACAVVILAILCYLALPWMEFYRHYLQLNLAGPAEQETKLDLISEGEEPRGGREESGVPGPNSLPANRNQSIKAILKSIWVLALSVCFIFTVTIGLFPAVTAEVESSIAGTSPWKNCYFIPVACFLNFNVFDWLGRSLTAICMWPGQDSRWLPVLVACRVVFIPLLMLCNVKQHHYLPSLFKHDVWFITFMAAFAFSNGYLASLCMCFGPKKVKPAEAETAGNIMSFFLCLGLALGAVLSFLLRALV
Description: Increasing concentrations of the test compounds were incubated for 30 minutes with 0.5 mg neuronal membrane protein together with 0.5 nM [^3 H]-NBTI in a Tris buffer (pH 7.4) at room temperature. The assays were quenched and membranes collected by rapid filtration. Filters were then solubilized and radioactivity determined by scintillation counting.

brain ischemia = experiment: Gerbil stroke model: hippocampal pyramidal cell survival; format: in vivo; settings: pretreatment with 500 mg/kg (FIG. 21)
Description: Ischemia was then induced by bilateral occlusion of both common carotid arteries for 5 minutes. Seven days following the ischemic insult, brains were removed and processed for histology.

AMP deaminase = experiment: Inhibition of AMP deaminase (14C-AMP to 14C-IMP); format: biochemical, human; settings: 200 μM of each ribotide
Description: The phosphorylated forms are referred to as AICA ribotide and ribavirin monophosphate, respectively. Using 200 μM of each ribotide, AMP deaminase was inhibited 38% and 54%, respectively.

[2] = tested on: longitudinal muscle from the guinea pig ileum; experiment: Inhibition of stimulated contraction in isolated ileum; settings: electrically stimulated guinea pig ileum muscle
Source text: These are detailed in Table II.

ischemic rat hearts = experiment: Rat heart ischemia model: tissue adenosine levels; format: in vivo
Description: Male rats were injected intraperitonealy with either the AICA riboside analog, AICA riboside or saline, as a control. After 60 minutes, the hearts were excised and incubated at 37° C. for a further 60 minutes. Tissue extracts were prepared and analyzed for adenosine by high performance liquid chromatography (HPLC).

[3] = tested on: granulocytes and endothelial cells; experiment: Granulocyte/endothelial cell interaction, intravital microscopy of mesentery microvessels; format: in vivo, rat; settings: superfusion with 20 μM, approximately 2 μM in the vessel
Description: The parameter measured was the fracture stress between the two cell types.
These studies were performed by intravital microscopy filming of granulocytes in rat mesentary microvessels. The rolling velocity of granulocytes compared to the streaming velocity of red cells was calculated before and after the administration of adenosine.

[4] = tested on: Mouse bone marrow-derived mast cells; experiment: Ribavirin: mast cell β-hexosaminidase release
demand-induced ischemia = experiment: Canine model of stable angina (repeated pacing with LAD stenosis); format: in vivo, dog
Description: Anesthetized male dogs were instrumented to measure regional myocardial wall thickening during right atrial pacing in the presence of a stenosis of the left anterior descending artery (Young & Mullane Am. J. Physiol. in press (1991)). In Table XIA, the effects on wall thickening and arterial pressure of six repeated episodes of pacing in animals treated with a continuous IV infusion of 50 μg/kg/min of the test compound administered post-pace #1 are compared with saline-treated control animals.

[5] = tested on: coronary endothelial cells; experiment: Inhibition of adenosine utilization in cell culture; format: cell-based; settings: Endothelial cell, 1 μM [3H] adenosine, 15 minutes
Description: In this assay, endothelial cells were incubated with 5 μM or 50 μM of the test compound together with 1 μM [^3H] adenosine for 15 minutes. Inhibition of adenosine utilization was determined by measuring the concentration of extracellular adenosine by scintillation counting following separation by thin layer chromatography (TLC).

[6] = Oral bioavailability and half-life in fasted adult beagles; format: in vivo, dog
Description: Heparinized blood and urine were collected at selected intervals over 24 hours. Each sample was chilled, centrifuged at 4° C. and frozen prior to HPLC analysis.

[7] = tested on: platelet aggregation in human whole blood; experiment: Inhibition of platelet aggregation in human whole blood; format: cell-based; settings: Homo sapiens, Platelet, 10 min, 10 minutes at 37° C., 10 µM adenosine added, ADP (6-25 μM)
Description: Whole blood was drawn from healthy donors and collected in 0.1 vol. of sodium citrate to prevent coagulation. Platelet aggregation was measured by the impedance technique using a Whole Blood Aggregometer. The test compounds were incubated in whole blood for 10 minutes at 37° C. and 10 µM adenosine was added 5 minutes before eliciting aggregation. Aggregation was induced by addition of ADP (6-25 μM) at the minimum concentration inducing full aggregation in untreated controls.

[8] = target: T2, calf intestinal musosa adenosine deaminase (Bos taurus, UniProt P56658); experiment: Adenosine deaminase activity; format: biochemical; settings: 80 μM adenosine, 10 minutes at 37° C.
T2 construct: 0.002 units of calf intestinal musosa adenosine deaminase; from tissue; host or cells: calf intestinal mucosa
T2 sequence (P56658 whole entry): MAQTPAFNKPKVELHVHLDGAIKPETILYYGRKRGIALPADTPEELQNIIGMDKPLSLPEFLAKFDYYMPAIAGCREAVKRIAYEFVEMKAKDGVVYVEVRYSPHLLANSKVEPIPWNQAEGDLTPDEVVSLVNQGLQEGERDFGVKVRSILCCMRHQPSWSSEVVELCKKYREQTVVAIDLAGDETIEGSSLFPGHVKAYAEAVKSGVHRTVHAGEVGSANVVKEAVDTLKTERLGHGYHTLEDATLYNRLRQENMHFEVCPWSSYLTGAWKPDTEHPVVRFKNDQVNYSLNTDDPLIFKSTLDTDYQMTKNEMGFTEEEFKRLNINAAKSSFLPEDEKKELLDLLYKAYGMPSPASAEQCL
Description: Different concentrations of the test compounds were incubated in the assay mixture for 10 minutes at 37° C. The reaction was monitored continuously for oxidation of NADH from the change in absorbance at 340 nm.

Compound: Nc1c(C(=O)NC2CCCC2)ncn1C1OC(CO)C(O)C1O [Compound No. 10 (1-186), 5-Amino-1-beta-D-ribofuranosylimidazole-4-N-(cyclopentyl)carboxamide]
melting point: 158 to 160 °C
EC50 [1]: 350 µM
effect in a gerbil model of brain ischemia (brain ischemia): demonstrated protective effects

Compound: NC(=O)c1ncn([C@@H]2O[C@H](COP(=O)(O)O)[C@@H](O)[C@H]2O)n1 [ribavirin monophosphate]
AMP deaminase inhibited (AMP deaminase): 54%

Compound: NC(=O)c1ncn([C@@H]2O[C@H](COP(=O)(O)O)[C@@H](O)[C@H]2O)c1N [AICA ribotide]
AMP deaminase inhibited (AMP deaminase): 38%

Compound: Nc1ncnc2c1ncn2[C@@H]1O[C@H](CO)[C@@H](O)[C@H]1O [Adenosine, 9-β-D-ribofuranosyladenine]
rolling velocity of granulocytes in microvessels [3]: twofold increase

Compound: NC(=O)c1ncn([C@@H]2O[C@H](CO)[C@@H](O)[C@H]2O)n1 [ribavirin, 1-β-D-ribofuranosyl-1H-1,2,4-triazole-3-carboxamide]
mediator release ([4]; 1 μM for six days): inhibits mediator release significantly
β-hexosaminidase release ([4]; 10 μM added at the time of mast cell stimulation): does not affect
β-hexosaminidase release ([4]; three to seven days in 10 μM, washed, A23187 challenge): marked attenuation

Compound: CCCCO[C@@H]1[C@H](O)[C@@H](CO)O[C@H]1n1cnc(C(N)=O)c1N [32 (1-262), 5-amino-1-(2-O-n-butyl-β-D-ribofuranosyl)imidazole-4-carboxamide]
IC50 [8]: 175 µM

Further lines, with some results ahead:

IC50 [2]: 200 µM
Compound: Nc1c(C(=O)NCc2ccccc2)ncn1[C@@H]1O[C@H](CO)[C@@H](O)[C@H]1O [Compound No. 11 (1-226), 5-Amino-1-beta-D-ribofuranosylimidazole-4-N-(benzyl)carboxamide]
Tissue Adenosine Levels (% Increase vs. Saline) (ischemic rat hearts; Expt 1): 53%
Tissue Adenosine Levels (% Increase vs. Saline) (ischemic rat hearts; Expt 2): 45%
effect in a gerbil model of brain ischemia (brain ischemia): demonstrated protective effects

EC50 [1]: ~100 µM
Mean Arterial Pressure (demand-induced ischemia; Baseline): 86 ± 5 mm Hg
Mean Arterial Pressure, Change from Baseline (demand-induced ischemia; Post Pace Rest Period 1): −1 ± 3 mm Hg
Mean Arterial Pressure, Change from Baseline (demand-induced ischemia; Post Pace Rest Period 2): −2 ± 3 mm Hg
Mean Arterial Pressure, Change from Baseline (demand-induced ischemia; Post Pace Rest Period 3): −8 ± 3 mm Hg
Mean Arterial Pressure, Change from Baseline (demand-induced ischemia; Post Pace Rest Period 4): −7 ± 3 mm Hg
Mean Arterial Pressure, Change from Baseline (demand-induced ischemia; Post Pace Rest Period 5): −8 ± 3 mm Hg
Mean Arterial Pressure, Change from Baseline (demand-induced ischemia; Post Pace Rest Period 6): −7 ± 3 mm Hg
IC50 ([2]; Cavia porcellus): 70 µM
half-life ([6]; beagle, dog, in vivo): 5.61 h
bioavailability ([6]; beagle, dog, in vivo, po, 10 mg/kg IV bolus and 20 mg/kg via stomach tube, read-out: Absolute Oral Bioavailability %): 32 ± 11%
IC50 [7]: 150 µM
Compound: NC[C@H]1O[C@@H](n2cnc(C(=O)NCc3ccc(Cl)cc3)c2N)[C@H](O)[C@@H]1O [Compound No. 53 (1-468), 5-Amino-1-(5-amino-5-deoxy-β-D-ribofuranosyl)imidazole-4-N-[(4-chlorophenyl)methyl]carboxamide Hydrochloride]
Heart Rate (demand-induced ischemia; Baseline): 143 ± 6 beats/min
% of NON-ISCHEMIC WALL THICKENING (demand-induced ischemia; Pace # 1 (before infusion), 50 μg/kg/min IV post-pace #1): 49.5 ± 6.5%
% of NON-ISCHEMIC WALL THICKENING (demand-induced ischemia; Pace # 2): 46.7 ± 7.0%
% of NON-ISCHEMIC WALL THICKENING (demand-induced ischemia; Pace # 3): 54.2 ± 9.4 %
% of NON-ISCHEMIC WALL THICKENING (demand-induced ischemia; Pace # 4): 48.1 ± 7.6 %
% of NON-ISCHEMIC WALL THICKENING (demand-induced ischemia; Pace # 5): 47.5 ± 8.2 %
% of NON-ISCHEMIC WALL THICKENING (demand-induced ischemia; Pace # 6): 42.1 ± 7.0 %
Heart Rate, Change from Baseline (demand-induced ischemia; Post Pace Rest Period 1): 1 ± 2 beats/min
Heart Rate, Change from Baseline (demand-induced ischemia; Post Pace Rest Period 2): −2 ± 4 beats/min
Heart Rate, Change from Baseline (demand-induced ischemia; Post Pace Rest Period 3): −1 ± 3 beats/min
Heart Rate, Change from Baseline (demand-induced ischemia; Post Pace Rest Period 4): 2 ± 4 beats/min
Heart Rate, Change from Baseline (demand-induced ischemia; Post Pace Rest Period 5): 1 ± 4 beats/min
Heart Rate, Change from Baseline (demand-induced ischemia; Post Pace Rest Period 6): 2 ± 4 beats/min
inhibition at 5 µM ([5]; 5 μM): 34 ± 4%
inhibition at 50 µM ([5]; 50 μM): 58 ± 2%

IC50 [2]: 800 µM
Half Life [6]: 1.30 h
Absolute Oral Bioavailability % ([6]; 10 mg/kg IV bolus and 20 mg/kg via stomach tube): 71 ± 13 (n = 2) %
Compound: NC[C@H]1O[C@@H](n2cnc(C(N)=O)c2N)[C@H](O)[C@@H]1O [Compound No. 21 (1-227), 5′-Amino-5′-deoxy-AICA-riboside]
